Data from ChEMBL document CHEMBL1129656, “A study of the active site of influenza virus sialidase: an approach to the rational design of novel anti-influenza drugs” (J Med Chem, 1996).

Assay: Compound was tested for the inhibition of influenza virus sialidase using 2'-(4-methylumbelliferyl)-N-acetylneuraminic acid substrate
Parameters: species or system unidentified influenza virus

Row | Structure (SMILES) | Ki [µM]
1 | CC(=O)NC1C(O)C=C(C(=O)O)OC1[C@H](O)[C@H](O)CO (stereo not given in full) | 4
2 | CC(=O)NC1C(O)CC(O)(C(=O)O)OC1[C@H](O)[C@H](O)CO (stereo not given in full) | 1000
3 | CC(=O)N[C@H]1[C@H]([C@H](O)[C@H](O)CO)OC(C(=O)O)=C[C@H]1N | 0.04
4 | CC(=O)N[C@@H]1C(NC(=N)N)C=C(C(=O)O)OC1[C@H](O)[C@H](O)CO (stereo not given in full) | 3e-05
5 | CC(=O)N[C@@H]1C(N)C=C(C(=O)O)O[C@H]1[C@H](O)[C@H](O)CO (single isomer, unassigned) | 0.3
